Experimental data as given in patent publication US5719152A, “Tricyclic quinoxalinedione derivatives” (Sumitomo Pharmaceuticals Co., Ltd., priority 1993, dated 1998).

What was measured:
[1] = system: strychnine-insensitive glycine modulatory site of NMDA (N-methyl D-aspartate) receptors; details: 0.1 mM; rat brain synaptic membrane preparation
Experimental: The activities of the compounds were measured by [^3 H] DCKA and [^3 H] glycine binding inhibition studies as illustrated below.
[^3 H] glycine binding studies
A crude rat brain synaptic membrane preparation was washed three times by centrifugation at 50,000×g for 30 min with 50 mM tris acetate (pH 7.4). The pellets obtained were suspended in 0.23M sucrose solution and stored at -80° C. For binding studies, the frozen suspension was thawed, treated with 0.08% triton X-100 at 2° C. for 10 min, and washed twice by the centrifugation as mentioned above. The synaptic membrane thus prepared (ca. 150~200 μg of protein) was incubated with 10 nM [^3 H] glycine (1.11 TBq/mmol) and the test compound (10 ng/mL~0.1 ng/mL) at 2° C. for 10 min in 50 mM tris acetate (pH 7.4). The incubation was terminated by suction filtration using Whatman GF/B glass filter. The radioactivities bound to the membrane on the filter was measured by scintillation counting. Non-specific binding was calculated by the radioactivities measured under the incubations in the presence of 0.1 mM D-serine.

[2] = system: NMDA-induced seizure; experiment: NMDA-induced seizure model; type: in vivo; details: Mus musculus, ip, 0.5 h; mice; test compound intraperitoneal 30 min before NMDA (5 nmol) i.c.v.; ten mice; read-out: ED50, inhibition of NMDA-induced tonic seizures
Experimental: The compounds of the present invention attenuated strongly NMDA-induced seizure under systemic administrations in the following in vivo model.
NMDA-induced seizure model
Thirty min later following intraperitoneal administration of the test compound (0.3~30 mg/kg) into each of ten mice tested, NMDA (5 nmol) was administered intracerebroventricularly (i.c.v.). […] The activity of the test compound may be shown by the ED50 value.

SMILES	inhibition of [3H] glycine binding [1]	ED50 [2] [mg/kg]
O=C1C[C@@H]2OCC=C3CN4CC[C@]56c7ccccc7N1[C@H]5[C@H]2[C@H]3C[C@H]46 [strychnine]	not inhibited	–
Cl.NCc1ccc(NC(=O)C[C@@H]2CCc3cc(Br)cc4[nH]c(=O)c(=O)n2c34)c(OCC(=O)O)c1 [Example 35, (S)-9-Bromo-5-[p-aminomethyl-o-(carboxymethoxy)phenylcarbamoylmethyl]6,7-dihydro-1H, 5H-pyrido[1,2,3-de]quinoxaline-2,3-dione hydrochloride]	–	2.1
Cl.NCc1ccc(NC(=O)C[C@@H]2CCc3cc(Cl)cc4[nH]c(=O)c(=O)n2c34)c(OCC(=O)O)c1 [Example 31, (S)-9-Chloro-5-[p-aminomethyl-o-(carboxymethoxy)phenylcarbamoylmethyl]-6,7-dihydro-1H, 5H-pyrido[1,2,3-de]quinoxaline-2,3-dione hydrochloride]	–	1
Cl.NCc1ccc(NC(=O)C[C@@H]2CCc3cc(Cl)cc4[nH]c(=O)c(=O)n2c34)c(CC(=O)O)c1 [Example 11, (S)-9-Chloro-5-[p-aminomethyl-o-(carboxymethyl)phenylcarbamoylmethyl]-6,7-dihydro-1H, 5H-pyrido[1,2,3-de]quinoxaline-2,3-dione hydrochloride]	–	3.1
